Data from patent US20190031618A1, “BENZIMIDAZOLE DERIVATIVES USEFUL AS CB-1 INVERSE AGONISTS” (Janssen Pharmaceutica NV, priority 2015, published 2019).

Tests used:
[1] = target: Human CB1R (Cannabinoid receptor 1) (Homo sapiens, UniProt P21554); test: CB-1 in vitro cAMP (HTRF) assay; type: cell-based; settings: HEK cells, cAMP HTRF, 250 nM forskolin; mean where tested more than once; read-out: CB1 HEK_cAMP EC50
Excerpt: (§1) CB1 and CB2 receptors are Gi-coupled GPCR. Activation of CB1 and CB2 receptors results in a decrease in cAMP production. An inverse agonist of the CB1 or CB2 receptor results in the opposite effect, an increase of cAMP production. The principle of this assay is based on HTRF® technology (Homogeneous Time-Resolved Fluorescence). The method is a competitive immunoassay between native cAMP produced by cells and the cAMP labeled with the fluorophore d2. The tracer binding is quantified by a Mab anti-cAMP labeled with Eu3+TBP-NHS Cryptate (supplied as part of the assay kit). The specific signal (i.e. energy transfer) is inversely proportional to the concentration of cAMP in the standard or sample.
Human CB1R (Cannabinoid receptor 1) was stably transfected in HEK-293 cells (DiscoveRx, cat: 93-0200C1). Human CB2R (Cannabinoid receptor 2) was stably transfected in HEK-293 cells (DiscoveRx, cat: 93-0201C1).
One day prior to experiments media was warmed to 37° C. and the cryo-stored cells were thawed in a 37° C. water bath. The cells were then added to media (10× volume) and the mixture was centrifuged at 1000 RPM for 5 min. The supernate was removed and the cells were re-suspended in media. A sample of the cell suspension was evaluated on a Cedex XS automated cell counter (Innovatis Systems) to determine viable cells/ml. Additional media was added to the cells to achieve a final cell density of 4E5 cells/mL. […] Cells were removed from Row P (location of cAMP standards). […] The cell plates were lidded and stored for 15 minutes in a hood, then transferred to an incubator (37° C., 5% CO2, 95% humidity) overnight.
Test compounds (60 μL, 10 mM) were added to Column 1 and 13 (A1 through N1 and A13 through L13). Test compounds were serially diluted 1/3 by transferring and mixing 20 μl sample with 40 μL DMSO.
DMSO (40 μL) was added to wells of 384 well V bottom polystyrene plate: O2 through O11, M14 through M23, N14 through N23, and O14 through O23. […] The control was serially diluted 1/3 by transferring and mixing 20 μl sample with 40 μL DMSO. This process resulted 11 doses per control, 10 mM to 0.5 μM.
Cells plated the day prior to the assay in clear bottom plates were viewed on an inverse microscope to ensure confluency in the range of 60-75%.
A FLEXDROP (Perkin Elmer) was cleaned with ethanol then water, and primed with Buffer 2. A 384 well V bottom polypropylene plate containing d2 labelled cAMP and a second 384 well V bottom polypropylene plate containing anti-cAMP was prepared (50 μl per well). Media as “dumped” from the cell plate and 30 μL Buffer 1 was added to each well using a Multidrop. The content of the cell plate was again “dumped” and 10 μL Buffer 2 was added to each well using a Flexdrop. […] The cell plate was mixed (Speed 6, Lab-Line Instruments Titer Plate Shaker) and centrifuged (1000 RPMs, 1 min). […] The cell plate was again mixed (speed 6) and centrifuged (1000 RPMs, 1 min). The cell plate was incubated for 30 minutes at room temperature (˜27° C.). The contents of row P were removed and the cAMP standard dilutions were added in duplicate to Row P (P1-12 and P13-24). After incubation, 6 μL d2 labelled cAMP and 6 μL of Anti-cAMP were added to all wells of the cell plate using a BioMek FX (Beckman Coulter). The cell plate was again mixed (speed 6) and centrifuged (1000 RPMs, 1 min) and was incubated for 60 minutes in the dark at room Temp (˜27° C.).
After this final incubation, the cell plate was read in HTRF mode (fluorescence at 665 nm and 620 nm) on an Envision plate Reader (Perkin Elmer). The Envision reader outputs a ratio of channel 1/channel 2 fluorescence×10,000 (Normalized signal (NS)). Amount of cAMP in nM was calculated for each well (based on NS) from a cAMP standard curve located on each plate (at P1-12 and P13-24). EC50 values were determined from a 4-point fit (Hill equation) of a single 11-point compound dosing. Hill slope was fixed at 1.0.

[2] = target: Human CB2R (Cannabinoid receptor 2) (Homo sapiens, UniProt P34972); test: CB-2 in vitro cAMP (HTRF) assay; type: cell-based; settings: HEK cells, cAMP HTRF, 250 nM forskolin; mean where tested more than once; read-out: CB2 HEK_cAMP EC50
Excerpt: as §1
Human CB1R (Cannabinoid receptor 1) was stably transfected in HEK-293 cells (DiscoveRx, cat: 93-0200C1). Human CB2R (Cannabinoid receptor 2) was stably transfected in HEK-293 cells (DiscoveRx, cat: 93-0201C1). Cell cultures were maintained in media: DMEM (Invitrogen Cat#12430-054) supplemented with 10% HI FBS (Invitrogen Cat#16140-071), 1% L-glutamine (Invitrogen Cat#25030-081), 0.2 mg/ml Hygromycin B (Invitrogen Cat#10687-010), 600 μg/mL G418 (Invitrogen Cat#10131-035), and 1× Penn/Strep (Invitrogen 15140-122). After cell expansion, aliquots were cryo-stored in media containing 5% DMSO (Pierce Cat#20684).
One day prior to experiments media was warmed to 37° C. and the cryo-stored cells were thawed in a 37° C. water bath. The cells were then added to media (10× volume) and the mixture was centrifuged at 1000 RPM for 5 min. The supernate was removed and the cells were re-suspended in media. A sample of the cell suspension was evaluated on a Cedex XS automated cell counter (Innovatis Systems) to determine viable cells/ml. Additional media was added to the cells to achieve a final cell density of 4E5 cells/mL. The cells were then plated into 384 well PDL white solid bottom plates (Greiner, Cat#781945) at 20 μL per well using a Multidrop (Thermo Scientific). Cells were removed from Row P (location of cAMP standards). Two columns of cells were plated into a clear bottom 384 well PDL coated plate (Greiner, Cat#781944) to view confluence the day of the assay. The cell plates were lidded and stored for 15 minutes in a hood, then transferred to an incubator (37° C., 5% CO2, 95% humidity) overnight.
DMSO was added to all wells of 384 well V bottom polystyrene plate (Greiner, Cat#781280) except to columns 1 and 13, rows O and P and wells M13-M23 and N13-N23. Test compounds (60 μL, 10 mM) were added to Column 1 and 13 (A1 through N1 and A13 through L13). Test compounds were serially diluted 1/3 by transferring and mixing 20 μl sample with 40 μL DMSO.
DMSO (40 μL) was added to wells of 384 well V bottom polystyrene plate: O2 through O11, M14 through M23, N14 through N23, and O14 through O23. AM630 (also known as [6-iodo-2-methyl-1-[2-(4-morpholinyl)ethyl]-1H-indol-3-yl](4-methoxyphenyl)-methanone, Cayman Chemical, Cat#10006974) (60 μL, 10 mM) was added to O1; and 1-(2,4-dichlorophenyl)-7-[(4-fluorophenyl)methylene]-4,5,6,7-tetrahydro-N-1-piperidinyl-1H-benzimidazole-3-carboxamide (60 μL, 10 mM) was added to N13. The control was serially diluted 1/3 by transferring and mixing 20 μl sample with 40 μL DMSO. This process resulted 11 doses per control, 10 mM to […].
Cells plated the day prior to the assay in clear bottom plates were viewed on an inverse microscope to ensure confluency in the range of 60-75%. […]

Sequence of Human CB2R (Cannabinoid receptor 2) (P34972 whole entry): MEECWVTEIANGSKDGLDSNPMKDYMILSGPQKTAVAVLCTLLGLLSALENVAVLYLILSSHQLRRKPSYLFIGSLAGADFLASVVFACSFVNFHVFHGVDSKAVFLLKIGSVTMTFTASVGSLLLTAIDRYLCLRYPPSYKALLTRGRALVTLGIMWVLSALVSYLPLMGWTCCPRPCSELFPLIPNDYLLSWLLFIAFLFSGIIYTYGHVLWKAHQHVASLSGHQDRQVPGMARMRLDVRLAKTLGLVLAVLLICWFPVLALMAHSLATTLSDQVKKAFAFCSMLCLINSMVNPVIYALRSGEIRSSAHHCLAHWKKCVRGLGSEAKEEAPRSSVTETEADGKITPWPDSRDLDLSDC
Sequence of Human CB1R (Cannabinoid receptor 1) (P21554 whole entry): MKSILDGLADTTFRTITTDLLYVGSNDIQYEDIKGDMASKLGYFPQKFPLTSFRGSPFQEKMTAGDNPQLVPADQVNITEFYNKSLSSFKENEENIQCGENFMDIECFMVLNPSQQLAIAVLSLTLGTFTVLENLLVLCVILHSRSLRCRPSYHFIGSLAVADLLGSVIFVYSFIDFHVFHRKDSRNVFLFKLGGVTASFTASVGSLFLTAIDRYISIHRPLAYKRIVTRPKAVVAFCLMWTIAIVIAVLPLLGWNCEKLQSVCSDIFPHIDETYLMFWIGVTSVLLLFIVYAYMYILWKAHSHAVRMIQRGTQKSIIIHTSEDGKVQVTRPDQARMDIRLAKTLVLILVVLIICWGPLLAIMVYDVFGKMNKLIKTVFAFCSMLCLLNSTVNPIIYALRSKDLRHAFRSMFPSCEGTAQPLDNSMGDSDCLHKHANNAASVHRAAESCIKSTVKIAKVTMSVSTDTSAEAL

SMILES	EC50 [1] [µM]	EC50 [2] [µM]
O=C(O)c1ccc(-c2ccc(CCn3c(C4CC4)nc4ccc(C(c5ccc(Cl)cc5)c5ccc(Cl)cc5)cc43)cc2)cc1 [Example 25]	1.65	> 10
COC(=O)c1cccc(OCCn2c(C3CC3)nc3ccc(C(c4ccc(Cl)cc4)c4ccc(Cl)cc4)cc32)c1 [Example 26]	0.103	3.31
Clc1ccc(C(c2ccc(Cl)cc2)c2ccc3nc(C4CC4)n(CCc4ccc(Br)cc4)c3c2)cc1 [Example 27]	0.011	> 10
Oc1cccc(N[C@H]2CC[C@H](n3c(C4CC4)nc4ccc(C(c5ccc(Cl)cc5)c5ccc(Cl)cc5)cc43)CC2)c1 [Example 28]	0.0215	> 10
O=C(O)c1ccc(N[C@H]2CC[C@H](n3c(C4CC4)nc4ccc(C(c5ccc(Cl)cc5)c5ccc(Cl)cc5)cc43)CC2)cc1 [Example 30]	0.0402	1.62
O=C(O)c1cccc(N[C@H]2CC[C@H](n3c(C4CC4)nc4ccc(C(c5ccc(Cl)cc5)c5ccc(Cl)cc5)cc43)CC2)c1 [Example 31]	0.15	3
O=C(O)c1ccc(N[C@H]2CC[C@@H](n3c(C4CC4)nc4ccc(C(c5ccc(Cl)cc5)c5ccc(Cl)cc5)cc43)CC2)cc1 [Example 32]	0.0395	2.16
COC(=O)c1ccc(OCCn2c(C3CC3)nc3ccc(C(c4ccc(Cl)cc4)c4ccc(Cl)cc4)cc32)nc1 [Example 34]	0.0375	6.8
O=C(O)c1ccc(OCCn2c(C3CC3)nc3ccc(C(c4ccc(Cl)cc4)c4ccc(Cl)cc4)cc32)cc1 [Example 35]	3.34	4.36
COC(=O)c1ccc(OCCn2c(C3CC3)nc3ccc(C(c4ccc(Cl)cc4)c4ccc(Cl)cc4)cc32)cc1 [Example 36]	0.0854	0.869
Oc1ccc(CCn2c(C3CC3)nc3ccc(C(c4ccc(Cl)cc4)c4ccc(Cl)cc4)cc32)cc1 [Example 37]	0.0876	7.26
O=C(O)c1ccc(CCn2c(C3CC3)nc3ccc(C(c4ccc(Cl)cc4)c4ccc(Cl)cc4)cc32)cc1 [Example 38]	4.3	1.7
O=C(O)c1cccc(NC2CCC(n3c(C4CC4)nc4ccc(C(c5ccc(Cl)cc5)c5ccc(Cl)cc5)cc43)CC2)c1 (centres unmarked) [Example 40]	0.104	5.12
CC(C)(C)OC(=O)N1CCC(n2c(C3CC3)nc3ccc(C(O)(c4ccc(Cl)cc4)c4ccc(Cl)cc4)cc32)CC1 [Example 41]	0.0306	> 42
O=C(O)c1ccc(S(=O)(=O)N[C@H]2CC[C@@H](n3c(C4CC4)nc4ccc(C(c5ccc(Cl)cc5)c5ccc(Cl)cc5)cc43)CC2)cc1 [Example 42]	0.0908	8.7
O=C(O)c1cccc(S(=O)(=O)N[C@H]2CC[C@@H](n3c(C4CC4)nc4ccc(C(c5ccc(Cl)cc5)c5ccc(Cl)cc5)cc43)CC2)c1 [Example 43]	0.113	12.1
O=C(O)c1cccc(OCCN2CCC(n3c(C4CC4)nc4ccc(C(c5ccc(Cl)cc5)c5ccc(Cl)cc5)cc43)CC2)c1 [Example 44]	0.0146	2.44
O=S(=O)(CCN1CCNCC1)N1CCC(n2c(C3CC3)nc3ccc(C(c4ccc(Cl)cc4)c4ccc(Cl)cc4)cc32)CC1 [Example 45]	0.593	> 42
NCCS(=O)(=O)N1CCC(n2c(C3CC3)nc3ccc(C(c4ccc(Cl)cc4)c4ccc(Cl)cc4)cc32)CC1 [Example 46]	0.45	> 42
CCC(c1cccc(C(=O)O)c1)N1CCC(n2c(C3CC3)nc3ccc(C(c4ccc(Cl)cc4)c4ccc(Cl)cc4)cc32)CC1 (centres unmarked) [Example 49]	0.0085	4.4
O=C(Nc1ccccc1)N1CCC(n2c(C3CC3)nc3ccc(C(c4ccc(Cl)cc4)c4ccc(Cl)cc4)cc32)CC1 [Example 50]	0.0481	> 10
Nc1cccc(S(=O)(=O)N2CCC(n3c(C4CC4)nc4ccc(C(c5ccc(Cl)cc5)c5ccc(Cl)cc5)cc43)CC2)c1 [Example 52]	0.0092	> 10
O=S(=O)(c1ccc(CO)o1)N1CCC(n2c(C3CC3)nc3ccc(C(c4ccc(Cl)cc4)c4ccc(Cl)cc4)cc32)CC1 [Example 55]	0.0123	2.74
CC(c1cccc(O)c1)N1CCC(n2c(C3CC3)nc3ccc(C(c4ccc(Cl)cc4)c4ccc(Cl)cc4)cc32)CC1 (centres unmarked) [Example 56]	0.0193	> 10
CC(c1cc(C(=O)O)ccn1)N1CCC(n2c(C3CC3)nc3ccc(C(c4ccc(Cl)cc4)c4ccc(Cl)cc4)cc32)CC1 (centres unmarked) [Example 59]	0.0038	> 21
O=C(Oc1ccccc1)N1CCC(n2c(C3CC3)nc3ccc(C(c4ccc(Cl)cc4)c4ccc(Cl)cc4)cc32)CC1 [Example 61]	0.019	> 21
O=C(O)CN1CCC(n2c(C3CC3)nc3ccc(C(c4ccc(Cl)cc4)c4ccc(Cl)cc4)cc32)CC1 [Example 63]	> 10	> 21
COC(=O)CN1CCC(n2c(C3CC3)nc3ccc(C(c4ccc(Cl)cc4)c4ccc(Cl)cc4)cc32)CC1 [Example 64]	0.0026	2.35
